# Measurements published in patent publication US7056532B1, “Compositions for delivery of biological agents and methods for the preparation thereof” (Univ. Nebraska Bd. of Regents, priority 1997, dated 2006).
# Test: Binding isotherms of surfactants to block copolymer (ion-selective electrode)
# Format: physicochemical
# Details: FIG. 1, dodecyl- versus cetyl- substituent
# Text: While not wishing to be bound by any particular theory, it is believed that the above-described surfactants and block copolymers of opposite charge form stable complexes due to cooperative binding. (See, e.g., Goddard, In Interactions of Surfactants with Polymers and Proteins. Goddard and Ananthapadmanabhan, Eds., pp. 171 et seq., CRC Press, Boca Raton, Ann Arbor, London, Tokyo, 1992). Cooperative binding occurs in the sense that binding of surfactant molecules to the block copolymer is enhanced by the presence of other molecules of the same or a different surfactant already bound to the same copolymer. According to the cooperative binding mechanism which is believed to underlie this invention, surfactant binds electrostatically to the oppositely charged P-type segments of the block copolymer to form supramolecular complexes. These complexes are cooperatively stabilized by the interactions of the hydrophobic parts of surfactant molecules bound to the same P-type segment with each other. Indeed, it appears that without these hydrophobic interactions, formation of the desired complex would not occur. FIG. 1 presents the binding isotherms for interaction of cetylpyridinium bromide and dodecylpyridinium bromide with the polyethylene oxide-block-poly(sodium methacrylate) block copolymer. […] This binding mechanism is, in particular, characteristic for surface active biological agents. […]
smiles,measurement,value
CCCCCCCCCCCC[n+]1ccccc1.[Br-] [dodecylpyridinium bromide],stability of the complex with polyethylene oxide-block-poly(sodium methacrylate),decreases the stability of the complex more than ten-fold
